The record followed here is patent publication US20050232983A1, “Transdermal patch” (INDEVUS PHARMACEUTICALS, INC., priority 2004, published 2005).

The data set can be described thus: serum dehydroepiandrosterone sulfate after topical application of the composition. In kind it is in vivo. Conditions: blood sample of recipient after application to skin. From the text:
Delivery of dehydroepiandrosterone to the recipient's blood stream can be confirmed by analysis of a blood sample taken from the recipient.

Turning to `C[C@]12CC[C@H](O)CC1=CC[C@@H]1[C@@H]2CC[C@]2(C)C(=O)CC[C@@H]12` [dehydroepiandrosterone], the “plateau of serum dehydroepiandrosterone sulfate relative to baseline” value is listed as “at least twice baseline levels” and the “time to increased serum levels of dehydroepiandrosterone sulfate” value was “within twenty-four hours”.
